Assays:
[1] = target: KRAS G12C Lite (SEQ ID NO:3) (Homo sapiens, UniProt P01116, C118S/C51S/C80S/G12C/S136P/S39C); experiment: Intact mass analysis (LC-MS) of covalent modification, KRAS G12C Lite; type: binding; parameters: key to KRAS Lite Modification: a: KRAS Lite modified; settings: intact mass spectrometry; covalent modification of KRAS G12C Lite
Experimental: The covalent modification of the proteins with the compounds were evaluated using intact mass analysis by liquid chromatography-mass spectrometry instrument (LC-MS/MS).
The reaction solution (20 μL) was prepared in 96-well plate and contained the protein (2 μM), the compound (100 μM), HEPES buffer (20 mM, pH 8), 2% DMSO, 2% glycerol, and 150 mM NaCl. The reaction was allowed to proceed for 24 h at 25° C. The reaction solution (1 μL) was injected into the LC/MS/MS without any further sample preparation.
The LC-MS/MS instrument comprises of a Waters G2-XS quadrupole-time of flight (QTof) mass spectrometer and a Waters Acuity I-class Ultra-High Performance Liquid Chromatography (UPLC) system. The I-class UPLC system includes a binary solvent manager (BSM), and an Acquity sample manager (SM). The mobile phase consisted of: A) 0.1% (v/v) formic acid in MilliQ water; B) 0.1% (v/v) formic acid acetonitrile. Gradients were run over 5 min and proceeded as follows: A:B, 85:15, 0.0-0.7 min, 85:15→15:85, 0.7-1.5 min, 10:90, 1.5-4 min, 10:90→85:15, 4-4.5 min, 85:15, 4.5-5 min. The analytical column was a Waters BEH C4 column 1.7 μm (50×1 mm) column with pore sizes of 300 Å. The TOF MS data was collected in positive ion mode (m/z of 400-2000 Da) using MassLynx software (Waters).
The spectral deconvolution was performed using UNIFI software (Waters). The added mass of the protein upon covalent modification to cysteine residues were specified. Multiple modification of up to 8 cysteine was allowed. All the adducts with signal intensities of <2% of the base peak were ignored. The % modification was calculated as the adduct signal intensity over the total intensities of the protein peaks and the adducts.

[2] = target: KRAS G12C (Homo sapiens, UniProt P01116, G12C); experiment: SOS1-catalyzed KRAS coupled nucleotide exchange assay (Alpha technology); type: biochemical; parameters: His; key: A: KRAS G12C bound and modulated; settings: inhibition of SOS1 mediated KRAS nucleotide exchange
Experimental: Method I: The inhibition of the SOS1-catalyzed nucleotide exchange activity of KRAS (e.g., KRAS G12C/C118A) was measured using Alpha (Amplified Luminescent Proximity Homogeneous Assay) technology. 20 nM GDP-bound human KRAS (G12C/C118A) protein was incubated with two-fold serially-diluted test compound or DMSO for 5 minutes at ambient temperature in reaction buffer (25 mM HEPES, pH 7.4; 10 mM MgCl2; 0.01% Triton X-100). For all subsequent steps, DTT was added to the reaction buffer at a final concentration of 1 mM. Next, GTP and SOS-1 were added in DTT-reaction buffer at final concentrations of 1.25 mM or 500 nM, respectively, and incubated at RT for 30 minutes. Finally, c-RAF RBD (50 nM final), Alpha glutathione donor beads (PerkinElmer; 20 μg/mL final), and AlphaLISAnickel chelate acceptor beads (PerkinElmer; 20 μg/mL final), all diluted in DTT-reaction buffer, were added. The reaction mixture was incubated at RT for 5 min, and then the plates were read on an EnVision® Multilabel Reader using the AlphaScreen protocol. Luminescence signal was measured at 570 nm following a 180 ms excitation at 680 nm. Signal intensity corresponded with the association of c-RAF RBD with GTP-bound KRAS G12C/C118A and was normalized to DMSO control.
Method II: Inhibition of the SOS1-catalyzed nucleotide exchange activity of KRAS^G12C was measured using Alpha technology (PerkinElmer). 50 nM GDP-bound human KRAS^G12C protein was incubated with serially-diluted compound or DMSO for 2 hrs at RT in RBD-RAS binding buffer (BPSBioscience). 1 mM GTP and 500 nM SOS-1 were added to the reaction mixture and incubated at RT for 30 min. GST-tagged RBD-cRAF was then added to the reaction mixture at a final concentration of 2.5 nM and incubated at RT for 30 min. Finally, Alpha Glutathione acceptor beads and Nickel chelate donor beads (PerkinElmer) were diluted to 1:500 and 1:250, respectively, and added to the reaction mixture. The final reaction was incubated at RT for 30 min. Plates were read on a TECAN SPARK® Multiplate Reader. The luminescence signal was measured at 615 nm following excitation at 680 nm. Signal intensity was normalized to DMSO control.

[3] = test system: phospho-ERK1/2 in MIA PaCa-2 cells (express KRAS G12C); experiment: ERK1/2 phosphorylation in MIA PaCa-2 cells; type: cell-based, human; parameters: key: X: KRAS G12C bound and modulated in cells
Experimental: MIA PaCa-2 cells were cultured in Dulbecco's Modified Eagle's Medium (Wisent) supplemented with 10% FBS, 2.5% horse serum, and 1% penicillin/streptomycin. Cells were seeded in 6-well plates at 500,000 cells/well and incubated at 37° C., 5% CO2 for 16 hours. Cells were treated with the indicated concentrations of compound or DMSO alone and incubated at 37° C., 5% CO2 for 6 or 24 hours. Conditioned media was discarded, and adherent cells were washed with PBS before they were scraped. Cell suspensions were centrifugated at 2,000 RPM for 5 minutes at 4° C. and supernatants were discarded. Cell pellets were resuspended with 1×RIPA buffer (Millipore) and incubated on ice for 15 minutes. Protein lysates were extracted by centrifugating at 20,000 RPM for 20 minutes at 4° C. Proteins were separated and total KRas protein levels were quantified by Simple Western Immunoassay (ProteinSimple) using the 2-40 kDa Separation Module for Jess according to the manufacturer's protocol, using a protein concentration of 0.5 μg/μl and antibodies targeting KRas (clone #4F3, Sigma) and GAPDH (clone #14C10, Cell Signaling) diluted to 1:10 and 1:1600, respectively, where the latter was used as a loading control. A 3:1 ratio of rabbit to mouse HRP-conjugated secondary antibodies was used for detection. KRas protein levels were quantified relative to GAPDH loading levels and subsequently normalized to the DMSO control. Phosphorylated ERK1/2 levels were quantified by Simple Western Immunoassay (ProteinSimple) using the Protein Normalization Assay Module for Jess according to the manufacturer's protocol using a protein concentration of 0.5 μg/μl and an antibody targeting phosphor-ERK1/2 (clone #D13.14.4E, Cell Signalling) diluted to 1:10. Phosphorylated ERK1/2 levels were normalized to the Jess Protein Normalization Reagent loading control and subsequently to the DMSO control.
MIA PaCa-2 cells were cultured in Dulbecco's Modified Eagle's Medium (Wisent) supplemented with 10% FBS, 2.5% horse serum, and 1% penicillin/streptomycin. Cells were seeded in 96-well plates at a density of 25,000 cells/well and incubated at 37° C., 5% CO2 for 24 hours. The next day, cells were starved in cell culture media containing 1% FBS only at 37° C., 5% CO2 for 16 hours. Following starvation, serially-diluted compounds or DMSO alone were added to cells and incubated at 37° C., 5% CO2 for 1 or 3 hours. Prior to cell lysis, 25 ng/ml human epidermal growth factor (hEGF) (Sigma) was added to the cells and incubated at 37° C., 5% CO2 for 10 minutes. Conditioned media was discarded, and adherent cells lysed and basal ERK1/2 phosphorylation levels were measured using the Phospho-ERK (Thr202/Tyr204) Cellular HTRF kit (Perkin Elmer) according to the manufacturer's protocol. The fluorescent signal of the acceptor antibody at a wavelength of 665 nm was normalized to that of the donor antibody at 620 nm. HTRF ratios were plotted and relative IC50 values were obtained using Prism (GraphPad).

| Structure (SMILES) | KRAS Lite Modification [1] | KRAS-SOS1 Nucleotide Exchange [2] | pERK - MIA PaCa-2 - (6 hours, 5 uM) [3] |
| --- | --- | --- | --- |
| O=S(=O)(c1c(O)c(F)c(F)c(F)c1F)N1CCN(c2ncnc3c2CCN(c2cccc4ccccc24)C3)CC1 [Compound 31A, 2,3,4,5-tetrafluoro-6-((4-(7-(naphthalen-1-yl)-5,6,7,8-tetrahydropyrido[3,4-d]pyrimidin-4-yl)piperazin-1-yl)sulfonyl)phenol] | a | A | – |
| COc1c(F)c(F)c(F)c(F)c1S(=O)(=O)Nc1nc(=O)n(-c2c(C)ccnc2C(C)C)c2nc(-c3c(O)cccc3F)c(F)cc12 (atropisomer, axis not shown) [Compound 9A, 2,3,4,5-tetrafluoro-N-(6-fluoro-7-(2-fluoro-6-hydroxyphenyl)-1-(2-isopropyl-4-methylpyridin-3-yl)-2-oxo-1,2-dihydropyrido[2,3-d]pyrimidin-4-yl)-6-methoxybenzenesulfonamide] | a | – | X |
| Cc1cccc(C)c1-c1cc2nccc(N3CCN(c4c(F)c(F)c(F)c(F)c4S(C)(=O)=O)C[C@@H]3C)c2cc1Cl [Compound 44A, (S)-6-chloro-7-(2,6-dimethylphenyl)-4-(2-methyl-4-(2,3,4,5-tetrafluoro-6-(methylsulfonyl)phenyl)piperazin-1-yl)quinoline] | – | A | X |
| C[S+]([O-])c1c(F)c(F)c(F)c(F)c1N1CC(Nc2ncnc3cc(-c4ccccc4F)c(Cl)cc23)C1 (racemic) [Compound 48A, 6-chloro-7-(2-fluorophenyl)-N-(1-(2,3,4,5-tetrafluoro-6-(methylsulfinyl)phenyl)azetidin-3-yl)quinazolin-4-amine] | – | A | X |
| O=S(=O)(c1c(F)c(F)c(F)c(F)c1C(F)(F)F)N1CCN(c2ncnc3c2CCN(c2cc(O)cc4ccccc24)C3)CC1 [Compound 41A, 4-(4-(4-((2,3,4,5-tetrafluoro-6-(trifluoromethyl)phenyl)sulfonyl)piperazin-1-yl)-5,8-dihydropyrido[3,4-d]pyrimidin-7(6H)-yl)naphthalen-2-ol] | – | A | X |
| Cc1ccnc(C(C)C)c1-n1c(=O)nc(NS(=O)(=O)c2c(F)c(F)c(F)c(F)c2OCF)c2cc(F)c(-c3c(O)cccc3F)nc21 (atropisomer, axis not shown) [Compound 10A, 2,3,4,5-tetrafluoro-N-(6-fluoro-7-(2-fluoro-6-hydroxyphenyl)-1-(2-isopropyl-4-methylpyridin-3-yl)-2-oxo-1,2-dihydropyrido[2,3-d]pyrimidin-4-yl)-6-(fluoromethoxy)benzenesulfonamide] | – | A | X |
| COc1c(F)c(F)c(F)c(F)c1S(=O)(=O)Nc1nc(=O)n(-c2c(C)ccnc2C(C)C)c2nc(Cl)c(F)cc12 [Compound 8A, N-(7-chloro-6-fluoro-1-(2-isopropyl-4-methylpyridin-3-yl)-2-oxo-1,2-dihydropyrido[2,3-d]pyrimidin-4-yl)-2,3,4,5-tetrafluoro-6-methoxybenzenesulfonamide] | a | – | – |
| O=S(=O)(NC1CN(c2ncnc3c2CCN(c2cccc4ccccc24)C3)C1)c1c(F)c(F)c(F)c(F)c1C(F)(F)F [Compound 35A, 2,3,4,5-tetrafluoro-N-(1-(7-(naphthalen-1-yl)-5,6,7,8-tetrahydropyrido[3,4-d]pyrimidin-4-yl)azetidin-3-yl)-6-(trifluoromethyl)benzenesulfonamide] | – | A | X |
| O=S(=O)(NC1CN(c2ncnc3c2CCN(c2cccc4ccccc24)C3)C1)c1c(F)c(F)c(F)c(F)c1F [Compound 20A, 2,3,4,5,6-pentafluoro-N-(1-(7-(naphthalen-1-yl)-5,6,7,8-tetrahydropyrido[3,4-d]pyrimidin-4-yl)azetidin-3-yl)benzenesulfonamide] | – | A | X |
| C[S+]([O-])c1c(F)c(F)c(F)c(F)c1N1CCN(c2ncnc3c2CCN(c2cccc4cccc(Cl)c24)C3)CC1 (racemic) [Compound 43A, 7-(8-chloronaphthalen-1-yl)-4-(4-(2,3,4,5-tetrafluoro-6-(methylsulfinyl)phenyl)piperazin-1-yl)-5,6,7,8-tetrahydropyrido[3,4-d]pyrimidine] | a | – | – |
| CS(=O)(=O)c1c(F)c(F)c(F)c(F)c1NC1CN(c2ncnc3cc(-c4ccccc4F)c(Cl)cc23)C1 [Compound 36A, 1-(6-chloro-7-(2-fluorophenyl)quinazolin-4-yl)-N-(2,3,4,5-tetrafluoro-6-(methylsulfonyl)phenyl)azetidin-3-amine] | – | – | X |

From US20240092756A1, “METHODS AND COMPOSITION FOR KRAS MODIFICATIONS” (2692372 ONTARIO, INC., priority 2020, published 2024)
